Results published in US20020176889A1 (priority 2000, published 2002).
Structures can show the parent of a compound that is named as a salt.

Assay: pH of saturated aqueous solution
Format: physicochemical
Excerpt: The pH of the composition can be controlled or adjusted by the proper selection of excipients. It should be borne in mind that amlodipine maleate is slightly acidic. […] An example of a pH-inert excipient is microcrystalline cellulose.

## CCOC(=O)C1=C(COCCN)NC(C)=C(C(=O)OC)C1c1ccccc1Cl (stereo not shown) [amlodipine maleate]
  pH as a saturated aqueous solution: about 4.8
